For this assay, the target named is NAE (heterodimer of APPBP1 and UBA3) (Homo sapiens (Human), UniProt Q8TBC4). Put plainly: Nedd8 conjugation inhibitory activity (AlphaScreen assay). Type of assay: biochemical. The following applies: purified NAE, GST-UBC12, Biotin-Nedd8, ATP. On the technique in general: Bead proximity is the source of the signal in Alpha formats.

Broadly, the IC50 is the point on the concentration scale where inhibition reaches its midpoint.

Sequence of NAE (heterodimer of APPBP1 and UBA3) (Q8TBC4 whole entry): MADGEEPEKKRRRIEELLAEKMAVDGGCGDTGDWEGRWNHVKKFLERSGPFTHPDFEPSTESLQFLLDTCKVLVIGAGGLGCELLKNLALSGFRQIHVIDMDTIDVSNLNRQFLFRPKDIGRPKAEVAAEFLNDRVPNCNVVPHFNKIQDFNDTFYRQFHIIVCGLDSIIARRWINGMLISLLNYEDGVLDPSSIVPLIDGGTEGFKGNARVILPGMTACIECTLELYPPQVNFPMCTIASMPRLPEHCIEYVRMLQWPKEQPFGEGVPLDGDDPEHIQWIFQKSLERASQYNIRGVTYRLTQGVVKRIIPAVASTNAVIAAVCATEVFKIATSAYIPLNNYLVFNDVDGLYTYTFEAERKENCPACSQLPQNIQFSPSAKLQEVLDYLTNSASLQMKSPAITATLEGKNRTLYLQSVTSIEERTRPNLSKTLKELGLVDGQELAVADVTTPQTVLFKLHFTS
Sequence of NAE (heterodimer of APPBP1 and UBA3) (Q13564 whole entry partner): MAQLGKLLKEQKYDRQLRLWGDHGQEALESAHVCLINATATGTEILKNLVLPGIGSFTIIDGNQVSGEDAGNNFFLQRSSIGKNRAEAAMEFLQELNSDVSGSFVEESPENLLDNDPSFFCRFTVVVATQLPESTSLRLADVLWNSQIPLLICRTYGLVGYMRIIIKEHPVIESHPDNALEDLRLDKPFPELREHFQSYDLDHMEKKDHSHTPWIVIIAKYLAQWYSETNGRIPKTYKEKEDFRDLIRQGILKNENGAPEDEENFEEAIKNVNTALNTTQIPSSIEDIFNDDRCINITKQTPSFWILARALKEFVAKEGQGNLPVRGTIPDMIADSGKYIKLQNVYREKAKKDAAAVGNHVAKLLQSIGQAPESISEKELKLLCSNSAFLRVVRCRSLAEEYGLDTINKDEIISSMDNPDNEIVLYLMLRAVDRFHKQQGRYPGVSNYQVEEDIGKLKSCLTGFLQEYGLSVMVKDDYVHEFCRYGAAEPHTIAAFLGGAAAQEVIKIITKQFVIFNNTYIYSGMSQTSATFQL

As to `COc1ccc2cccnc2c1C#Cc1cn([C@@H]2O[C@H](CNS(N)(=O)=O)[C@@H](O)[C@H]2O)c2ncnc(N)c12` [Example 63, 8-[2-[4-Amino-7-[(2R,3R,4S,5R)-3,4-dihydroxy-5-[(sulfamoylamino)methyl]tetrahydrofuran-2-yl]pyrrolo[2,3-d]pyrimidin-5-yl]ethynyl]-7-methoxyquinoline], the half-inhibitory concentration (IC50) was 0.011 µM. That is a double-digit nanomolar value.
Then `Nc1ncnc2c1c(C#Cc1c(F)cc(OCn3nccn3)cc1F)cn2[C@@H]1O[C@H](CNS(N)(=O)=O)[C@@H](O)[C@H]1O` [Example 67, 4-Amino-5-[2-[2,6-difluoro-4-(triazol-2-ylmethoxy)phenyl]ethynyl]-7-[(2R,3R,4S,5R)-3,4-dihydroxy-5-[(sulfamoylamino)methyl]tetrahydrofuran-2-yl]pyrrolo[2,3-d]pyrimidine], with 0.0085 µM; and `Nc1ncnc2c1c(C#Cc1c(F)ccnc1F)cn2[C@@H]1O[C@H](CNS(N)(=O)=O)[C@@H](O)[C@H]1O` [Example 69, 4-Amino-5-[2-(2,4-difluoro-3-pyridyl)ethynyl]-7-[(2R,3R,4S,5R)-3,4-dihydroxy-5-[(sulfamoylamino)methyl]tetrahydrofuran-2-yl]pyrrolo[2,3-d]pyrimidine], with 0.015 µM; and `CCS(=O)(=O)c1cc(N2CCCC2)cc(F)c1C#Cc1cn([C@@H]2O[C@H](CNS(N)(=O)=O)[C@@H](O)[C@H]2O)c2ncnc(N)c12` [Example 70, 4-Amino-7-[(2R,3R,4S,5R)-3,4-dihydroxy-5-[(sulfamoylamino)methyl]tetrahydrofuran-2-yl]-5-[2-(2-ethylsulfonyl-6-fluoro-4-pyrrolidin-1-yl-phenyl)ethynyl]pyrrolo[2,3-d]pyrimidine], with 0.013 µM.
For `COc1cncc(F)c1C#Cc1cn([C@@H]2O[C@H](CNS(N)(=O)=O)[C@@H](O)[C@H]2O)c2ncnc(N)c12` [Example 71, 4-Amino-7-[(2R,3R,4S,5R)-3,4-dihydroxy-5-[(sulfamoylamino)methyl]tetrahydrofuran-2-yl]-5-[2-(3-fluoro-5-methoxy-4-pyridyl)ethynyl]pyrrolo[2,3-d]pyrimidine] the value was 0.014 µM.
Then `CCS(=O)(=O)c1cc(N2CC[C@@H](O)C2)cc(F)c1C#Cc1cn([C@@H]2O[C@H](CNS(N)(=O)=O)[C@@H](O)[C@H]2O)c2ncnc(N)c12` [Example 72, 4-Amino-7-[(2R,3R,4S,5R)-3,4-dihydroxy-5-[(sulfamoylamino)methyl]tetrahydrofuran-2-yl]-5-[2-[2-ethylsulfonyl-6-fluoro-4-[(3R)-3-hydroxypyrrolidin-1-yl]phenyl]ethynyl]pyrrolo[2,3-d]pyrimidine], with 0.0044 µM; and `Nc1ncnc2c1c(C#Cc1ncc(OCc3ccccc3)cn1)cn2[C@@H]1O[C@H](CNS(N)(=O)=O)[C@@H](O)[C@H]1O` [Example 76, 4-Amino-5-[2-(5-benzyloxypyrimidin-2-yl)ethynyl]-7-[(2R,3R,4S,5R)-3,4-dihydroxy-5-[(sulfamoylamino)methyl]tetrahydrofuran-2-yl]pyrrolo[2,3-d]pyrimidine], with 0.0051 µM.
Take `NC(=O)c1cccc(F)c1C#Cc1cn([C@@H]2O[C@H](CNS(N)(=O)=O)[C@@H](O)[C@H]2O)c2ncnc(N)c12` [Example 79, 2-[2-[4-Amino-7-[(2R,3R,4S,5R)-3,4-dihydroxy-5-[(sulfamoylamino)methyl]tetrahydrofuran-2-yl]pyrrolo[2,3-d]pyrimidin-5-yl]ethynyl]-3-fluorobenzamide]: half-maximal inhibition (IC50) was put at 0.0032 µM.
The compound `COc1ncc(F)c(C#Cc2cn([C@@H]3O[C@H](CNS(N)(=O)=O)[C@@H](O)[C@H]3O)c3ncnc(N)c23)c1F` [Example 80, 4-Amino-5-[2-(3,5-difluoro-2-methoxy-4-pyridyl)ethynyl]-7-[(2R,3R,4S,5R)-3,4-dihydroxy-5-[(sulfamoylamino)methyl]tetrahydrofuran-2-yl]pyrrolo[2,3-d]pyrimidine] returned a concentration for half-maximal inhibition (IC50) of 0.014 µM.
`COc1cnc(OC)c(F)c1C#Cc1cn([C@@H]2O[C@H](CNS(N)(=O)=O)[C@@H](O)[C@H]2O)c2ncnc(N)c12` [Example 81, 4-Amino-7-[(2R,3R,4S,5R)-3,4-dihydroxy-5-[(sulfamoylamino)methyl]tetrahydrofuran-2-yl]-5-[2-(3-fluoro-2,5-dimethoxy-4-pyridyl)ethynyl]pyrrolo[2,3-d]pyrimidine] gave an IC50 of 0.0056 µM.
For `CCSc1ccccc1C#Cc1cn([C@@H]2O[C@H](CNS(N)(=O)=O)[C@@H](O)[C@H]2O)c2ncnc(N)c12` [Example 82, 4-Amino-7-[(2R,3R,4S,5R)-3,4-dihydroxy-5-[(sulfamoylamino)methyl]tetrahydrofuran-2-yl]-5-[2-(2-ethylsulfanylphenyl)ethynyl]pyrrolo[2,3-d]pyrimidine] the value was 0.01 µM; for `Nc1ncnc2c1c(C#Cc1cccc3c1S(=O)(=O)CCC3)cn2[C@@H]1O[C@H](CNS(N)(=O)=O)[C@@H](O)[C@H]1O` [Example 83, 4-Amino-7-[(2R,3R,4S,5R)-3,4-dihydroxy-5-[(sulfamoylamino)methyl]tetrahydrofuran-2-yl]-5-[2-(1,1-dioxo-3,4-dihydro-2H-thiochromen-8-yl)ethynyl]pyrrolo[2,3-d]pyrimidine], 0.019 µM.
As for `Nc1ncnc2c1c(C#Cc1c(F)cccc1S(N)(=O)=O)cn2[C@@H]1O[C@H](CNS(N)(=O)=O)[C@@H](O)[C@H]1O` [Example 84, 2-[2-[4-Amino-7-[(2R,3R,4S,5R)-3,4-dihydroxy-5-[(sulfamoylamino)methyl]tetrahydrofuran-2-yl]pyrrolo[2,3-d]pyrimidin-5-yl]ethynyl]-3-fluoro-benzenesulfonamide], the IC50 came to 0.0097 µM.
The compound `Nc1ncnc2c1c(C#Cc1c(F)cccc1OCC1CC1)cn2[C@@H]1O[C@H](CNS(N)(=O)=O)[C@@H](O)[C@H]1O` [Example 86, 4-Amino-5-[2-[2-(cyclopropylmethoxy)-6-fluoro-phenyl]ethynyl]-7-[(2R,3R,4S,5R)-3,4-dihydroxy-5-[(sulfamoylamino)methyl]tetrahydrofuran-2-yl]pyrrolo[2,3-d]pyrimidine] yielded an IC50 of 0.0054 µM.
Then `Nc1ncnc2c1c(C#Cc1ncccc1F)cn2[C@@H]1O[C@H](CNS(N)(=O)=O)[C@@H](O)[C@H]1O` [Example 88, 4-Amino-7-[(2R,3R,4S,5R)-3,4-dihydroxy-5-[(sulfamoylamino)methyl]tetrahydrofuran-2-yl]-5-[2-(3-fluoro-2-pyridyl)ethynyl]pyrrolo[2,3-d]pyrimidine], with 0.018 µM; and `CSc1ccccc1C#Cc1cn([C@@H]2O[C@H](CNS(N)(=O)=O)[C@@H](O)[C@H]2O)c2ncnc(N)c12` [Example 89, 4-Amino-7-[(2R,3R,4S,5R)-3,4-dihydroxy-5-[(sulfamoylamino)methyl]tetrahydrofuran-2-yl]-5-[2-(2-methylsulfanylphenyl)ethynyl]pyrrolo[2,3-d]pyrimidine], with 0.011 µM; and `Nc1ncnc2c1c(C#Cc1ccccc1S(N)(=O)=O)cn2[C@@H]1O[C@H](CNS(N)(=O)=O)[C@@H](O)[C@H]1O` [Example 90, 2-[2-[4-Amino-7-[(2R,3R,4S,5R)-3,4-dihydroxy-5-[(sulfamoylamino)methyl]tetrahydrofuran-2-yl]pyrrolo[2,3-d]pyrimidin-5-yl]ethynyl]benzenesulfonamide], with 0.0056 µM.
For `NC(=O)c1cccc(COc2ccc(C#Cc3cn([C@@H]4O[C@H](CNS(N)(=O)=O)[C@@H](O)[C@H]4O)c4ncnc(N)c34)cc2)c1` [Example 91, 3-[[4-[2-[4-Amino-7-[(2R,3R,4S,5R)-3,4-dihydroxy-5-[(sulfamoylamino)methyl]tetrahydrofuran-2-yl]pyrrolo[2,3-d]pyrimidin-5-yl]ethynyl]phenoxy]methyl]benzamide] the value was 0.018 µM; for `COc1cccc(OC)c1C#Cc1cn([C@@H]2C[C@H](CNS(N)(=O)=O)[C@@H](O)[C@H]2O)c2ncnc(N)c12` [Example 94, 4-Amino-7-[(1R,2S,3R,4R)-2,3-dihydroxy-4-[(sulfamoylamino)methyl]cyclopentyl]-5-[2-(2,6-dimethoxyphenyl)ethynyl]pyrrolo[2,3-d]pyrimidine], 0.021 µM; for `COc1cccc(F)c1C#Cc1cn([C@@H]2C[C@H](CNS(N)(=O)=O)[C@@H](O)[C@H]2O)c2ncnc(N)c12` [Example 95, 4-Amino-7-[(1R,2S,3R,4R)-2,3-dihydroxy-4-[(sulfamoylamino)methyl]cyclopentyl]-5-[2-(2-fluoro-6-methoxy-phenyl)ethynyl]pyrrolo[2,3-d]pyrimidine], 0.013 µM.
For `Nc1ncnc2c1c(C#Cc1cccc3cccnc13)cn2[C@@H]1C[C@H](CNS(N)(=O)=O)[C@@H](O)[C@H]1O` [Example 96, 8-[2-[4-Amino-7-[(1R,2S,3R,4R)-2,3-dihydroxy-4-[(sulfamoylamino)methyl]cyclopentyl]pyrrolo[2,3-d]pyrimidin-5-yl]ethynyl]quinoline] the value was 0.0092 µM.
`CSc1cccc(F)c1C#Cc1cn([C@@H]2C[C@H](CNS(N)(=O)=O)[C@@H](O)[C@H]2O)c2ncnc(N)c12` [Example 98, 4-Amino-7-[(1R,2S,3R,4R)-2,3-dihydroxy-4-[(sulfamoylamino)methyl]cyclopentyl]-5-[2-(2-fluoro-6-methylsulfanyl-phenyl)ethynyl]pyrrolo[2,3-d]pyrimidine] had an IC50 of 0.0083 µM.
Then `CCSc1cccc(F)c1C#Cc1cn([C@@H]2C[C@H](CNS(N)(=O)=O)[C@@H](O)[C@H]2O)c2ncnc(N)c12` [Example 99, 4-Amino-7-[(1R,2S,3R,4R)-2,3-dihydroxy-4-[(sulfamoylamino)methyl]cyclopentyl]-5-[2-(2-ethylsulfanyl-6-fluoro-phenyl)ethynyl]pyrrolo[2,3-d]pyrimidine], with 0.019 µM.
Then `Nc1ncnc2c1c(C#Cc1c(F)cc(N3CCOCC3)cc1F)cn2[C@@H]1C[C@H](CNS(N)(=O)=O)[C@@H](O)[C@H]1O` [Example 101, 4-[4-[2-[4-amino-7-[(1R,2S,3R,4R)-2,3-dihydroxy-4-[(sulfamoylamino)methyl]cyclopentyl]pyrrolo[2,3-d]pyrimidin-5-yl]ethynyl]-3,5-difluoro-phenyl]morpholine], with 0.0076 µM.

The values are drawn from patent US9963456B2, “Pyrrolopyrimidine compound or salt thereof and compositions containing the pyrrolopyrimidine compound or salt thereof” (TAIHO PHARMACEUTICAL CO., LTD., priority 2014, dated 2018).
